Where two headings read alike, the source gives them in different places.
How the values were obtained:
[1] = target: 229E Mpro (Human coronavirus 229E, UniProt P0C6X1); experiment: 229E Mpro enzymatic assay; format: biochemical, HCoV 229E
Description: (§1) Compounds were assayed using standard methods to assess compound activity and IC50. As an exemplary for assessment of the SARS-COV2 Mpro, the C-His6-tagged Mpro (NC_045512) was cloned, expressed in E. coli and purified. The assay buffer contained 20 mM of Tris-HCl (pH 7.3), 100 mM of NaCl, 1 mM of EDTA, 5 mM of TCEP and 0.1% BSA. The final concentrations of the Mpro protein and substrate were 25 nM and 25 μM, respectively, in the Mpro enzymatic assay. The Km of the Mpro substrate for the protease was 13.5 μM.
(§2) The compounds were added to an assay plate. For 100% inhibition control (HPE, hundred percent effect), 1 μM GC376 was added. For no inhibition control (ZPE, zero percent effect), no compound was added.
(§3) IC50 values of compounds were calculated with the GraphPad Prism software using the nonlinear regression model of log(inhibitor) vs. response—Variable slope (four parameters). The inhibition activity was calculated using the formula below, IC50 values is calculated using the Inhibition % data.
(§4) [formula] • #HEP: Hundred percent effect controls. Containing substrate+enzyme+1 μM GC376. • ZPE: Zero percent effective controls. Containing enzyme+substrate, no compound. • Sample: Compound activity testing wells. Containing compound+enzyme+substrate. • BG: Compound background control wells. Containing compound+substrate, no enzyme.

[2] = target: OC43 Mpro (Human coronavirus OC43, UniProt P0C6X6); experiment: OC43 Mpro enzymatic assay; format: biochemical, HCoV OC43
Description: as §1, §2, §3, §4

[3] = target: SARS-COV2 Mpro (Severe acute respiratory syndrome coronavirus 2, UniProt P0DTD1); experiment: COVID-19 (nCoV-2019, SARS-CoV2) Mpro enzymatic assay; format: biochemical
Description: Compounds were assayed using standard methods to assess compound activity and IC50. As an exemplary for assessment of the SARS-COV2 Mpro, the C-His6-tagged Mpro (NC_045512) was cloned, expressed in E. coli and purified. The assay buffer contained 20 mM of Tris-HCl (pH 7.3), 100 mM of NaCl, 1 mM of EDTA, 5 mM of TCEP and 0.1% BSA. The final concentrations of the Mpro protein and substrate were 25 nM and 25 μM, respectively, in the Mpro enzymatic assay.
The compounds were added to an assay plate. For 100% inhibition control (HPE, hundred percent effect), 1 μM GC376 was added.
as §3
[formula] • #HEP: Hundred percent effect controls. […] Containing enzyme+substrate, no compound. • Sample: Compound activity testing wells. Containing compound+enzyme+substrate. • BG: Compound background control wells. Containing compound+substrate, no enzyme.

[4] = tested on: HCoV 229E; experiment: HCoV 229E cytopathic effect (CPE) assay; format: cell-based; conditions: read-out: 229E CPE EC50
Description: Compounds were assayed using standard methods against multiple coronaviral strains, including HCoV 229E and OC43 strains. The antiviral activity of compounds was calculated based on the protection of the virus-induced CPE at each concentration normalized by the virus control.
Reagents and instruments used in this assay include luminescent cell viability assay kit CellTiter Glo (Promega) and Microplate Reader Synergy2 (BioTek).
Cytopathic effect (CPE) was measured by CellTiter Glo following the manufacturer's manual. The antiviral activity of compounds was calculated based on the protection of the virus-induced CPE at each concentration normalized by the virus control.
The cytotoxicity of compounds was assessed under the same conditions, but without virus infection, in parallel. Cell viability was measured with CellTiter Glo. The antiviral activity and cytotoxicity of compounds were expressed as % Inhibition and % Viability, respectively, and calculated with formulas.

[5] = Table 3, read-out: COVID-19 Mpro IC50
[6] = Table 5, read-out: COVID-19 Mpro IC50

Sequence of 229E Mpro (P0C6X1 2966-3267): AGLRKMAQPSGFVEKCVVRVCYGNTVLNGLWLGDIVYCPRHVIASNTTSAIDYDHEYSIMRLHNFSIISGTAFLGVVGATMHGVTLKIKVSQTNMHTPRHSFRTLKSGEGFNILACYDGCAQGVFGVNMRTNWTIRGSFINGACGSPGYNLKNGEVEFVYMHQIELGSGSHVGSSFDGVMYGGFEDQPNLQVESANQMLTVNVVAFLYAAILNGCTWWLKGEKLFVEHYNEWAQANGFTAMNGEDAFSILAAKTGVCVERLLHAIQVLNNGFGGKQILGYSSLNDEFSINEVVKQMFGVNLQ
Sequence of OC43 Mpro (P0C6X6 3247-3549): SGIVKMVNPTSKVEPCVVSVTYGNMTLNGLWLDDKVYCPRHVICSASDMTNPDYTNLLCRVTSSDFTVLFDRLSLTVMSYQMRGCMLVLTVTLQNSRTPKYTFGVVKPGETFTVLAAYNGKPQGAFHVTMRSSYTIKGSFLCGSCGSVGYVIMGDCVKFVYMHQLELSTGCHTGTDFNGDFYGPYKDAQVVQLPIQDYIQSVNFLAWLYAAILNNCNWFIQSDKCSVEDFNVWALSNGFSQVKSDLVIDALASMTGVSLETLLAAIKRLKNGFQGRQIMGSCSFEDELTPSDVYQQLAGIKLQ

COCCOC(=O)N[C@H](C(=O)N1C[C@H]2[C@@H]([C@H]1C(=O)N[C@H](C#N)C[C@@H]1CC3(CC3)NC1=O)C2(C)C)C(C)(C)C [Compound 133, 2-methoxyethyl ((S)-1-((1R,2S,5S)-2-(((S)-1-cyano-2-((R)-5-oxo-4-azaspiro[2.4]heptan-6-yl)ethyl)carbamoyl)-6,6-dimethyl-3-azabicyclo[3.1.0]hexan-3-yl)-3,3-dimethyl-1-oxobutan-2-yl)carbamate]
< 2 µM: IC50 ([1]; Table 3) | IC50 ([2]; Table 3) | IC50 [3] | EC50 ([4]; Table 4, CellTiter Glo)

CC(C)(C)[C@H](NC(=O)OC1CCOC1)C(=O)N1C[C@H]2[C@@H]([C@H]1C(=O)N[C@H](C#N)C[C@@H]1CC3(CC3)NC1=O)C2(C)C (stereo partly drawn) [Compound 134, tetrahydrofuran-3-yl N-[(1S)-1-[(1R,2S,5S)-2-[[(1S)-1-cyano-2-[(6R)-5-oxo-4-azaspiro[2.4]heptan-6-yl]ethyl]carbamoyl]-6,6-dimethyl-3-azabicyclo[3.1.0]hexane-3-carbonyl]-2,2-dimethyl-propyl]carbamate]
< 2 µM: IC50 ([1]; Table 3) | IC50 ([2]; Table 3) | IC50 [3] | EC50 ([4]; Table 4, CellTiter Glo)

CC(C)(C)[C@H](NC(=O)c1cnccn1)C(=O)N1C[C@H]2[C@@H]([C@H]1C(=O)N[C@H](C#N)C[C@@H]1CC3(CC3)NC1=O)C2(C)C [Compound 129, (1R,2S,5S)—N-[(1S)-1-cyano-2-[(6R)-5-oxo-4-azaspiro[2.4]heptan-6-yl]ethyl]-3-[(2S)-3,3-dimethyl-2-(pyrazine-2-carbonylamino)butanoyl]-6,6-dimethyl-3-azabicyclo[3.1.0]hexane-2-carboxamide]
< 2 µM: IC50 ([1]; Table 3) | IC50 ([2]; Table 3) | IC50 [3] | EC50 ([4]; Table 4, CellTiter Glo)

CC(C)(C)C(=O)N[C@H](C(=O)N1C[C@H]2[C@@H]([C@H]1C(=O)N[C@H](C#N)C[C@@H]1CC3(CC3)NC1=O)C2(C)C)C(C)(C)C [Compound 135, (1R,2S,5S)—N-[(1S)-1-cyano-2-[(6R)-5-oxo-4-azaspiro[2.4]heptan-6-yl]ethyl]-3-[(2S)-2-(2,2-dimethylpropanoylamino)-3,3-dimethyl-butanoyl]-6,6-dimethyl-3-azabicyclo[3.1.0]hexane-2-carboxamide]
< 2 µM: IC50 ([1]; Table 3) | IC50 ([2]; Table 3) | IC50 [3] | EC50 ([4]; Table 4, CellTiter Glo)

CC(C)(C)[C@H](NC(=O)OCC(F)(F)F)C(=O)N1C[C@H]2[C@@H]([C@H]1C(=O)N[C@H](C#N)C[C@@H]1CC3(CC3)NC1=O)C2(C)C [Compound 132, 2,2,2-trifluoroethyl ((S)-1-((1R,2S,5S)-2-(((S)-1-cyano-2-((R)-5-oxo-4-azaspiro[2.4]heptan-6-yl)ethyl)carbamoyl)-6,6-dimethyl-3-azabicyclo[3.1.0]hexan-3-yl)-3,3-dimethyl-1-oxobutan-2-yl)carbamate]
< 2 µM: IC50 ([1]; Table 3) | IC50 ([2]; Table 3) | IC50 [3, 5] | EC50 [4]

C[C@@H](OCC(F)(F)F)[C@H](NC(=O)C(F)(F)F)C(=O)N1C[C@H]2[C@@H]([C@H]1C(=O)N[C@H](C#N)C[C@@H]1CC3(CC3)NC1=O)C2(C)C [Compound 319, (1R,2S,5S)—N-[(1S)-1-cyan-2-[(6R)-5-oxo-4-azaspiro[2.4]heptan-6-yl]ethyl]-6,6-dimethyl-3-[(2S,3R)-2-[(2,2,2-trifluoroacetyl)amino]-3-(2,2,2-trifluoroethoxy)butanoyl]-3-azabicyclo[3.1.0]hexane-2-carboxamide]
< 2 µM: IC50 ([1]; Table 5) | IC50 ([2]; Table 5) | IC50 [3, 6]

CC1(C)[C@@H]2[C@@H](C(=O)N[C@H](C#N)C[C@@H]3CC4(CC4)NC3=O)N(C(=O)C(NC(=O)C(F)(F)F)C3CCC3)C[C@@H]21 (single isomer, unassigned) [372 Isomer 1]
< 2 µM: IC50 ([1]; Table 3) | IC50 ([2]; Table 3) | IC50 [3, 5]

C[C@@H](OC(C)(C)C(F)(F)F)[C@H](NC(=O)C(F)(F)F)C(=O)N1C[C@H]2[C@@H]([C@H]1C(=O)N[C@H](C#N)C[C@@H]1CC(C)(C)NC1=O)C2(C)C [Compound 357, (1R,2S,5S)—N-[(1S)-1-cyano-2-[(3R)-5,5-dimethyl-2-oxo-pyrrolidin-3-yl]ethyl]-6,6-dimethyl-3-[(2S,3R)-2-[(2,2,2-trifluoroacetyl)amino]-3-(2,2,2-trifluoro-1,1-dimethyl-ethoxy)butanoyl]-3-azabicyclo[3.1.0]hexane-2-carboxamide]
< 2 µM: IC50 ([1]; Table 5) | IC50 ([2]; Table 5) | IC50 [3, 6]

COC(C)(C)[C@H](NC(=O)C(F)(F)F)C(=O)N1C[C@H]2[C@@H]([C@H]1C(=O)N[C@H](C#N)C[C@@H]1CC3(CC3)NC1=O)C2(C)C [Compound 139, (1R,2S,5S)—N—((S)-1-cyan-2-((R)-5-oxo-4-azaspiro[2.4]heptan-6-yl)ethyl)-3-((S)-3-methoxy-3-methyl-2-(2,2,2-trifluoroacetamido)butanoyl)-6,6-dimethyl-3-azabicyclo[3.1.0]hexane-2-carboxamide]
< 2 µM: IC50 ([1]; Table 5) | IC50 ([2]; Table 5) | IC50 [3, 6]

C[C@@H](OC1(C2CC2)CC1)[C@H](NC(=O)C(F)(F)F)C(=O)N1C[C@H]2[C@@H]([C@H]1C(=O)N[C@H](C#N)C[C@@H]1CC3(CC3)NC1=O)C2(C)C [Compound 331, (1R,2S,5S)—N-[(1S)-1-cyano-2-[(6R)-5-oxo-4-azaspiro[2.4]heptan-6-yl]ethyl]-3-[(2S,3R)-3-(1-cyclopropylcyclopropoxy)-2-[(2,2,2-trifluoroacetyl)amino]butanoyl]-6,6-dimethyl-3-azabicyclo[3.1.0]hexane-2-carboxamide]
< 2 µM: IC50 ([1]; Table 3) | IC50 ([2]; Table 3) | IC50 [3, 5]

CC1(C)C[C@@H](C[C@@H](C#N)NC(=O)[C@@H]2[C@@H]3[C@H](CN2C(=O)[C@@H](NC(=O)C(F)(F)F)C2CCC(C)(C)O2)C3(C)C)C(=O)N1 (some centres unmarked) [Compound 328]
< 2 µM: IC50 ([1]; Table 3) | IC50 ([2]; Table 3) | IC50 [3, 5]

CC(C)(C)[C@H](NC(=O)C1(CF)CC1(F)F)C(=O)N1C[C@H]2[C@@H]([C@H]1C(=O)N[C@H](C#N)C[C@@H]1CC3(CC3)NC1=O)C2(C)C (single isomer, unassigned) [292 Isomer 2]
< 2 µM: IC50 ([1]; Table 3) | IC50 ([2]; Table 3) | IC50 [3, 5]

C[C@@H](OC(C)(C)C)[C@H](NC(=O)C(F)(F)F)C(=O)N1C[C@H]2[C@@H]([C@H]1C(=O)N[C@H](C#N)C[C@@H]1CC3(CC3)NC1=O)C2(C)C [Compound 137, (1R,2S,5S)-3-[(2S,3R)-3-tert-butoxy-2-[(2,2,2-trifluoroacetyl)amino]butanoyl]-N-[(1S)-1-cyano-2-[(6R)-5-oxo-4-azaspiro[2.4]heptan-6-yl]ethyl]-6,6-dimethyl-3-azabicyclo[3.1.0]hexane-2-carboxamide]
< 2 µM: IC50 ([1]; Table 5) | IC50 ([2]; Table 5) | IC50 [3, 6]

CO[C@H](C)[C@H](NC(=O)C(F)(F)F)C(=O)N1C[C@H]2[C@@H]([C@H]1C(=O)N[C@H](C#N)C[C@@H]1CC(C)(C)NC1=O)C2(C)C [Compound 290, (1R,2S,5S)-N—((S)-1-cyano-2-((R)-5,5-dimethyl-2-oxopyrrolidin-3-yl)ethyl)-3-((2S,3R)-3-methoxy-2-(2,2,2-trifluoroacetamido)butanoyl)-6,6-dimethyl-3-azabicyclo[3.1.0]hexane-2-carboxamide]
< 2 µM: IC50 ([1]; Table 5) | IC50 ([2]; Table 5) | IC50 [3, 6]
